Results: US20230346940A1, “Method And System For Identifying And Validating Shared Candidate Antigens And Shared Antigen-Specific T Lymphocyte Pairs” (National University of Singapore, priority 2019, published 2023)
Entries after “also recorded” stand apart in the source; their conditions may differ.

What was measured:
CD8+ T cells [1] = test: HLA-A24 tetramer CyTOF screen of CRC patient PBMC; format: cell-based, human; conditions: 10 HLA-A24 positive CRC patients, validation cohort
Method: To determine whether CRC patients have CD8+ T cells that target any of the 75 SVPs that bind to HLA-A24, a CyTOF screen was conducted on a new cohort of 10 HLA-A24 positive CRC patients (validation cohort) using MHC tetramer staining of PBMC (procedure for performing this screen is similar to that described in Example 13). In total, antigen-specific CD8+ T cells that target eight splice variant peptides were identified from this screen.

CD8+ T cells [2] = test: HLA-A11 tetramer CyTOF screen of CRC patient PBMC; format: cell-based, human; conditions: 8 HLA-A11 positive CRC patients; for antigen specific CD8+ T cells detected in CRC patients: validation cohort
Method: To determine if CRC patients have CD8+ T cells that target any of the 102 peptides that were identified in Example 12, a CyTOF screen was conducted on a new cohort of 8 CRC patients (validation cohort) using MHC tetramer staining of PBMC (FIG. 19(a)). These CRC patients are all positive for HLA-A11.
The 102 peptides were chemically synthesized by Mimotopes. These peptides were loaded onto biotinylated HLA-A11 by UV-mediated exchange. Streptavidin, labelled with three heavy metal barcodes, was bound to the peptide-loaded HLA-A11 to make the HLA-tetramers used for staining PBMCs.
To increase the sensitivity of detecting antigen-specific T cells, two different sets of heavy metal barcodes were used for each peptide. PBMCs from each patient were stained with these two sets of peptide-loaded HLA tetramers. Frequency co-concordance was used as an indication of specific staining for rare events.

CD8 T cells = test: FACS analysis with fluorescently labelled A11 MHC tetramers; format: cell-based, human; conditions: fresh PBMC isolate from gastric cancer patient SC020
Method: To determine if GC patients have CD8+ T cells that target any of the 77 peptides that were identified in Example 2, a CyTOF screen was conducted on a new cohort of GC patients (the Validation cohort) using MHC tetramer staining of peripheral blood. The CyTOF screen was performed as described in Leong and Newell (2015). Chemically synthesized peptides were supplied by Mimotopes and were stored as dry powder at −20° C. These peptides were loaded onto biotinylated HLA-A11 by UV-mediated exchange. Streptavidin labelled with three heavy metal barcodes was bound to the peptide loaded HLA-A11 to make the HLA-tetramers used for staining peripheral blood (FIG. 7). HLA-A11 tetramer staining of 7 gastric cancer patients derived PBMCs was performed (FIG. 12(a)) and control peptides against the Epstein-Bar Virus (EBV) viral antigen were incorporated as positive control (FIG. 13). […] This antigen was generated from an alternative splicing event of the MARK3 gene identified in Example 2 (FIG. 11(b)). The sequence of the MARK3 splice variant antigen used in the CyTOF studies was RNMSFRIK (SEQ ID NO: 1) and the EBV peptide sequence was […] (SEQ ID NO: 2). […] Patient SC020 was also positive for T Cells that reacted with the positive control peptide from the EBV (FIG. 13). […]

CD8+ T cells [3] = test: HLA-A11 tetramer CyTOF screen of gastric cancer patient PBMCs; format: cell-based, human; conditions: for CD8+ T-cells capable of recognizing the peptide antigen (HLA-A11 tetramer staining): PBMCs of 7 gastric cancer patients, validation cohort, CyTOF
Description: In one specific example, as shown schematically in FIG. 7, the method 150 may include HLA tetramer staining of peripheral blood, including preparing HLA tetramers by bacterially expressing and purifying biotin tagged HLA loaded with a UV cleavable peptide. Individual shared candidate antigens are then loaded onto the HLA molecule by UV mediated peptide exchange. Addition of heavy metal barcoded streptavidin causes formation of a tetramer comprising a shared candidate antigen. Peripheral blood (e.g. PBMC) from one or more cohort of patients having the medical condition is stained with a pool of the HLA tetramer and analysis is then done using CyTOF.
To determine if GC patients have CD8+ T cells that target any of the 77 peptides that were identified in Example 2, a CyTOF screen was conducted on a new cohort of GC patients (the Validation cohort) using MHC tetramer staining of peripheral blood. The CyTOF screen was performed as described in Leong and Newell (2015). Chemically synthesized peptides were supplied by Mimotopes and were stored as dry powder at −20° C. These peptides were loaded onto biotinylated HLA-A11 by UV-mediated exchange. Streptavidin labelled with three heavy metal barcodes was bound to the peptide loaded HLA-A11 to make the HLA-tetramers used for staining peripheral blood (FIG. 7). HLA-A11 tetramer staining of 7 gastric cancer patients derived PBMCs was performed (FIG. 12(a)) and control peptides against the Epstein-Bar Virus (EBV) viral antigen were incorporated as positive control (FIG. 13). […] This antigen was generated from an alternative splicing event of the MARK3 gene identified in Example 2 (FIG. 11(b)). The sequence of the MARK3 splice variant antigen used in the CyTOF studies was RNMSFRIK (SEQ ID NO: 1) and the EBV peptide sequence was […] (SEQ ID NO: 2). […] Patient SC020 was also positive for T Cells that reacted with the positive control peptide from the EBV (FIG. 13). The presence of the MARK3 splice variant antigen in a fresh PBMC isolate from gastric cancer patient, SC020, was further confirmed by a FACS analysis using fluorescently labelled MARK3-A11-RNMSFRIK peptide tetramers (FIG. 12(b)).

CTLs = test: ELISPOT assay for IFN-γ in PBMCs from healthy donors; format: cell-based, human; conditions: PBMCs from healthy donors with or without stimulation with peptide
Method: T cells having a shared splice variant antigen, such as MARK3, can be expanded ex-vivo. In the case of MARK3, PBMC were obtained from healthy donors. An aliquot of these PBMCs was used to isolate monocytes (Human Monocyte Isolation Kit, STEMCELL Technologies) for subsequent differentiation to dendritic cells (ImmunoCult Dendritic Cell Culture kit, STEMCELL Technologies). These monocyte derived dendritic cells were treated with mitomycin C (30 μg/ml) to prevent outgrowth of these cells. These dendritic cells were then loaded with MARK3 peptide and used as antigen-presenting cells. CD8+ T cells were isolated (EasySep Human CD8+ T cell isolation kit, STEMCELL Technologies) from another aliquot of PBMCs and these cells were co-cultured with the antigen-presenting cells to stimulate the expansion of MARK3 specific T cells. To generate sufficient number of MARK3-specific T cells for functional characterisation or TCR identification, MARK3 peptide loaded monocyte derived dendritic cells or artificial antigen presenting cells may be used to further stimulate expansion of MARK3 specific T cells. Expansion of MARK3 specific T cells using the above method can be used for the treatment of patients.
Characterization of the MARK3 antigen and CD8+T lymphocytes was carried out by first determining whether MARK3 specific CTLs could be expanded in healthy donor PBMCs (as shown in Example 6). […]

CD8+ T cells [4] = test: moDC/CD8+ T-cell co-culture of healthy donors, tetramer FACS (immunogenicity); format: cell-based, human; conditions: HLA-A11 positive healthy donors, SVP 2.5 μM loaded moDC, 10 days co-culture, PE/APC tetramers
Description: Antigen specific T-cells for LRR1, GRINA, and ZNF670 were initially identified in the SVP/HLA-A11 tetramer CyTOF screen (as described in Example 13). The immunogenicity of these targets was further assessed by testing whether antigen specific T-cells could be expanded in the PBMC of healthy donors who were HLA-A11 positive. PBMC were obtained from healthy donors and an aliquot was used to isolate monocytes (CD14 positive selection kit, STEMCELL Technologies) for subsequent differentiation to dendritic cells. Briefly, differentiation of monocytes to dendritic cells was carried out by culturing the isolated CD14 cells with IL4 (10 ng/ml) and GM-CSF (800 IU/ml) for 3 days and maturating the dendritic cells with IL4 (10 ng/ml), GM-CSF (800 IU/ml), LPS (10 ng/ml), IFN-γ (100 IU/ml), and the LRR1, GRINA and ZNF670 HLA-A11 SVP (2.5 μM) overnight. These monocyte derived dendritic cells were then cultured with CD8+ T cells which were isolated from another aliquot of PBMCs from the same donor using EasySep CD8 T cell isolation kit, STEMCELL Technologies. After 10 days of co-culture, expansion of antigen-specific T cells was detected by staining with tetramers (labelled with PE and APC) that have been loaded with the LRR1, GRINA and ZNF670 HLA-A11 SVP. […] Antigen-specific T-cells for these SVPs are not observed in CD8+ T cells in unstimulated PBMCs from healthy donors, whereas SVP-specific T-cells can be observed when they have been co-cultured with monocyte-derived dendritic cells that have been loaded with the SVP. In summary, antigen-specific CD8 T cells for LRR1, GRINA and ZNF670 were able to be generated in healthy donors, showing that these SVPs are immunogenic.

[5] = target: T1, MARK3 splice variant (inclusion of exon 24; MARK3 isoforms 1 and 3) peptide on HLA-A*11 (human); test: multimer staining
T1 peptide: RNMSFRFIK

[6] = listed as MARK3 splice variant antigen

Question: With “KWPPATETL (MZF1 spliced variant antigen)” as the molecule, how does the “antigen specific CD8+ T cells detected in CRC patients” value (CD8+ T cells [1]) read?
Answer: detected

Question: With “LTMAVKAEK (ZC3HAV splice variant antigen) [ZC3HAV1]” as the molecule, how does the “antigen specific CD8+ T cells detected in CRC patients” value (CD8+ T cells [2]) read?
Answer: could be identified in one or more CRC patients

Question: Which results are given for “RNMSFRFIK (MARK3 splice variant) [MARK3 peptide]”?
Answer: presence of antigen-specific CD8 T cells confirmed by FACS (CD8 T cells): confirmed; positive hit out of 7 samples (CD8+ T cells [3]; CyTOF screen, 7 GC patients): 14%; CD8+ T-cells capable of recognizing the peptide antigen (HLA-A11 tetramer staining) (CD8+ T cells [3]): one out of 7; CD8+ T-cells capable of recognizing the peptide antigen (HLA-A11 tetramer staining) (CD8+ T cells [3]; [6]): one of the patients, SC020, was found to be positive; CD8+ T-cells capable of recognizing the peptide antigen (HLA-A11 tetramer staining) (CD8+ T cells [3]; listed as MARK3 splice variant peptide): has CTLs that react; IFN-γ secreting CTLs (CTLs): IFN-γ secreting CTLs are only observed when PBMCs were stimulated with MARK3 peptide; IFN-γ secreting CTLs (CTLs; [6]): antigenic

Question: What does the source list for “SCVSPSSELK (ZNF670 splice variant antigen)”?
Answer: expansion of antigen-specific CD8+ T cells (immunogenicity) (CD8+ T cells [4]): observed only after stimulation; also recorded: immunogenic; number of CRC patients in which detected (CD8+ T cells [2]): two; antigen specific CD8+ T cells detected in CRC patients (CD8+ T cells [2]): could be identified in one or more CRC patients

Question: With “SIRQAFIRK (GRINA splice variant antigen)” as the molecule, how does the “expansion of antigen-specific CD8+ T cells (immunogenicity)” value (CD8+ T cells [4]) read?
Answer: observed only after stimulation; also recorded: immunogenic

Question: And the “antigen specific CD8+ T cells detected in CRC patients” value (CD8+ T cells [2])?
Answer: could be identified in one or more CRC patients

Question: Which “expansion of antigen-specific CD8+ T cells (immunogenicity)” value (CD8+ T cells [4]) does the source give for SLPRFGYRK (LRR1 splice variant antigen) here?
Answer: observed only after stimulation; also recorded: immunogenic

Question: And the “antigen specific CD8+ T cells detected in CRC patients” value (CD8+ T cells [2])?
Answer: could be identified in one or more CRC patients

Question: And the “antigen specific CD8+ T cells detected in CRC patients” value (CD8+ T cells [2]; listed as SEQ ID NO: 36)?
Answer: detected

Question: And the “antigen specific CD8+ T cells detected in CRC patients” value (CD8+ T cells [2]; listed as SLPRFGYRK)?
Answer: detected in CRC patients

Question: “SQLDFVKTRK (PARD3 splice variant antigen)” was tested. Which “antigen specific CD8+ T cells detected in CRC patients” value (CD8+ T cells [2]) did it give?
Answer: could be identified in one or more CRC patients

Question: Which “CD8+ T-cells capable of recognizing the peptide antigen (HLA-A11 tetramer staining)” value (CD8+ T cells [3]) does the source give for “SSCSSCPLSK (EBV peptide sequence) [control peptide against the Epstein-Bar Virus (EBV) viral antigen, positive control, reference compound]” here?
Answer: positive

Question: Which “number of CRC patients in which detected” value (CD8+ T cells [2]) does the source give for “SSFYALEEK (NBPF9 splice variant antigen)” here?
Answer: two

Question: And the “antigen specific CD8+ T cells detected in CRC patients” value (CD8+ T cells [2])?
Answer: could be identified in one or more CRC patients

Question: Which results are given for “SYHSIPSLPRF (LRR1 splice variant antigen)”?
Answer: antigen specific CD8+ T cells detected in CRC patients (CD8+ T cells [1]): detected in CRC patients; antigen specific CD8+ T cells detected in CRC patients (CD8+ T cells [1]; listed as SEQ ID NO: 51): detected

Question: Which “antigen specific CD8+ T cells detected in CRC patients” value (CD8+ T cells [2]) does the source give for VIVSASRTK (YAF2 splice variant antigen) here?
Answer: could be identified in one or more CRC patients

Question: “VTSPSRRSK (CAMKK1 splice variant antigen)” was tested. Which “antigen specific CD8+ T cells detected in CRC patients” value (CD8+ T cells [2]) did it give?
Answer: could be identified in one or more CRC patients

B1: MARK3-specific TCR (MARK3 TRA chain and MARK3 TRB chain) (TCR, V domains shown)
Valpha: SQKIEQNSEALNIQEGKTATLTCNYTNYSPAYLQWYRQDPGRGPVFLLLIRENEKEKRKERLKVTFDTTLKQSLFHITASQPADSATYLCAPYTGGFKTIFGAGTRLFVKA
Vbeta: DTGVSQNPRHKITKRGQNVTFRCDPISEHNRLYWYRQTLGQGPEFLTYFQNEAQLEKSRLLSDRFSAERPKGSFSTLEIQRTEQGDSAMYLCASSSPRVGYGYTFGSGTRLTVV
Question: Does B1 bind [5]?
Answer: recognises
